Experimental data from patent publication US20180360042A1, “Liquid fungicide-containing formulations” (BAYER CROPSCIENCE AKTIENGESELLSCHAFT, priority 2015, published 2018).

How the values were obtained:
[1] = Determination of compound (III) content in prothioconazole formulations after storage at 54° C. for 2 weeks; assay type: physicochemical; details: PTZ EC 250 after storage at 54° C. over 2 weeks
Protocol: (§1) Determination of 2-(1-chlorocyclopropyl)-1-(2-chlorophenyl)-3-(1H-1,2,4-triazol-1-yl)propan-2-ol (Compound III) in Formulations
(§2) 2-(1-Chlorocyclopropyl)-1-(2-chlorophenyl)-3-(1H-1,2,4-triazol-1-yl)propan-2-ol is separated from the formulation constituents on a reverse phase column using an isocratic eluent. After MS/MS detection, the quantitative evaluation is conducted by comparing the peak areas with those of the reference object, using an external standard.
(§3) High-pressure liquid chromatograph: HP 1090
(§4) Sample injection: HP 1090 Autoinjector
(§5) Mass spectrometer: Quattro I, Fisons
(§6) Integration and evaluation: MassLynx from Micromass
Example 9: Comparison of Compound (III) Content of the Formulations from Examples 1 to 4 after Storage at 54° C. for 2 Weeks

[2] = Determination of compound (III) content in prothioconazole formulations by HPLC-MS/MS, starting samples; assay type: physicochemical; details: PTZ EC 250 starting sample
Protocol: as §1, §2, §3, §4, §5, §6

[3] = addition of 10% wt/wt Hallcomid vs 0%
[4] = addition of 20% wt/wt Hallcomid vs 0%

## C=CCCCCCCCC(=O)N(C)C [Hallcomid®, N,N-dimethyl 9-decenamide]
[1]; [3]
  reduction in the content of compound (III): 75%
[1]; [4]
  reduction in the content of compound (III): 82%
[1]; addition of 56.9% wt/wt Hallcomid vs 0%
  reduction in the content of compound (III): 98%
[2]; [3]
  reduction of the content of compound (III): 72%
[2]; [4]
  reduction of the content of compound (III): 76%
[2]; addition of 54.9% wt/wt Hallcomid vs 0%
  reduction of the content of compound (III): 97%
